From patent EP1873155A1, “Inhibitors of the HIV integrase enzyme” (PFIZER INC., priority 2004, dated 2005)

test system: RF strain of HIV-1; assay: HIV-1 cell protection assay (XTT dye reduction); format: cell-based; settings: CEM-SS cells infected with HIV-1 RF, six days, XTT formazan; read-out: EC50
Protocol: Example 61: HIV-1 Cell Protection Assay
The antiviral activities of potential modulator compounds (test compounds) were determined in HIV-1 cell protection assays using the RF strain of HIV-1, CEM-SS cells, and the XTT dye reduction method (Weislow, O.S. et al., J. Natl. Cancer Inst. 81: 577-586 (1989)). Subject cells were infected with HIV-1 RF virus at an moi of 0.025 to 0.819 or mock infected with medium only and added at 2 x 10^4 cells per well into 96 well plates containing half-log dilutions of test compounds. Six days later, 50 µl of XTT solution (1 mg/ml XTT tetrazolium and […] phenazine methosulfate) were added to the wells and the plates were reincubated for four hours. Viability, as determined by the amount of XTT formazan produced, was quantified spectrophotometrically by absorbance at 450 nm.
Data from CPE assays were expressed as the percent of formazan produced in compound-treated cells compared to formazan produced in wells of uninfected, compound-free cells. […] The therapeutic index was calculated by dividing the cytotoxicity (CC50) by the antiviral activity (EC50).

SMILES | EC50 [nM]
O=C1c2ncc3c(ccn3Cc3ccc(F)cc3)c2CCCN1O [Example 3, 3-(4-Fluorobenzyl)-7-hydroxy-7,8,9,1 0-tetrahydropyrrolo[3',2':4,5]pyrido[2,3-c]azepin-6(3H)-one] | 29

same assay, conditions: Human immunodeficiency virus 1, CEM-SS, 144 h

SMILES | EC50 [nM]
O=C1c2ncc3c(ccn3Cc3ccc(F)cc3)c2CCN1O [Example 2, 3-(4-Fluorobenzyl)-7-hydroxy-3,7,8,9-tetrahydro-6H-pyrrolo[2,3-c]-1,7-naphthyridin-6-one] | 0.6
O=C(c1cn(Cc2ccc(F)cc2)c2cnc3c(=O)n(O)ccc3c12)N1CCCC1 [Example 26, 3-(4-fluorobenzyl)-7-hydroxy-1-(pyrrolidin-1-ylcarbonyl)-3,7-dihydro-6H-pyrrolo[2,3-c]-1,7-naphthyridin-6-one] | 5
CC(=O)N1CCN(C(=O)c2cn(Cc3ccc(F)cc3)c3cnc4c(=O)n(O)ccc4c23)CC1 [Example 27, 1-[(4-acetylpiperazin-1-yl)carbonyl]-3-(4-fluorobenzyl)-7-hydroxy-3,7-dihydro-6H-pyrrolo[2,3-c]-1,7-naphthyridin-6-one] | 19
O=C(NCCc1cnccn1)c1cn(Cc2ccc(F)cc2)c2cnc3c(=O)n(O)ccc3c12 [Example 28, 3-(4-fluorobenzyl)-7-hydroxy-6-oxo-N-(2-pyrazin-2-ylethyl)-6,7-dihydro-3H-pyrrolo[2,3-c]-1,7-naphthyridine-1-carboxamide] | 24
O=C(NCc1ccccn1)c1cn(Cc2ccc(F)cc2)c2cnc3c(=O)n(O)ccc3c12 [Example 29, 3-(4-fluorobenzyl)-7-hydroxy-6-oxo-N-(pyridin-2-ylmethyl)-6,7-dihydro-3H-pyrrolo[2,3-c]-1,7-naphthyridine-1-carboxamide] | 35
O=C(NCC(F)(F)F)c1cn(Cc2ccc(F)cc2)c2cnc3c(=O)n(O)ccc3c12 [Example 30, 3-(4-fluorobenzyl)-7-hydroxy-6-oxo-N-(2,2,2-trifluoroethyl)-6,7-dihydro-3H-pyrrolo[2,3-c]-1,7-naphthyridine-1-carboxamide] | 13

same assay, conditions: Human immunodeficiency virus 1, CEM-SS, 144 h, CEM-SS cells infected with HIV-1 RF, six days, XTT formazan; read-out: EC50

SMILES | EC50 [nM]
O=c1c2ncc3c(ccn3Cc3ccc(F)cc3)c2ccn1O [Example 1, 3-(4-Fluorobenzyl)-7-hydroxy-3,7-dihydro-6H-pyrrolo[2,3-c]-1,7-naphthyridin-6-one] | 0.4
CN(C)Cc1cn(Cc2ccc(F)cc2)c2cnc3c(=O)n(O)ccc3c12 [Example 4, 1-[(dimethylamino)methyl]-3-(4-fluorobenzyl)-7-hydroxy-3,7-dihydro-6H-pyrrolo[2,3-c]-1,7-naphthyridin-6-one] | 7
NC(=O)[C@@H]1CCCN1Cc1cn(Cc2ccc(F)cc2)c2cnc3c(=O)n(O)ccc3c12 [Example 5, 1-{[3-(4-fluorobenzyl)-7-hydroxy-6-oxo-6,7-dihydro-3H-pyrrolo[2,3-c]-1,7-naphthyridin-1-yl]methyl}-L-prolinamide] | 38
O=C1CN(Cc2cn(Cc3ccc(F)cc3)c3cnc4c(=O)n(O)ccc4c23)CCN1 [Example 6, 3-(4-fluorobenzyl)-7-hydroxy-1-[(3-oxopiperazin-1-yl)methyl]-3,7-dihydro-6H-pyrrolo[2,3-c]-1,7-naphthyridin-6-one] | 12
CN1CCN(Cc2cn(Cc3ccc(F)cc3)c3cnc4c(=O)n(O)ccc4c23)CC1 [Example 7, 3-(4-fluorobenzyl)-7-hydroxy-1-[(4-methylpiperazin-1-yl)methyl]-3,7-dihydro-6H-pyrrolo[2,3-c]-1 ,7-naphthyridin-6-one] | 8
CCN1CCN(Cc2cn(Cc3ccc(F)cc3)c3cnc4c(=O)n(O)ccc4c23)CC1 [Example 8, 1-[(4-ethylpiperazin-1-yl)methyl]-3-(4-fluorobenzyl)-7-hydroxy-3,7-dihydro-6H-pyrrolo[2,3-c]-1,7-naphthyridin-6-one] | 11
O=c1c2ncc3c(c(CN4CCc5ccccc5C4)cn3Cc3ccc(F)cc3)c2ccn1O [Example 10, 1-(3,4-dihydroisoquinolin-2(1H)-ylmethyl)-3-(4-fluorobenzyl)-7-hydroxy-3,7-dihydro-6H-pyrrolo[2,3-c]-1,7-naphthyridin-6-one] | 0.41
CCCCCN(C)Cc1cn(Cc2ccc(F)cc2)c2cnc3c(=O)n(O)ccc3c12 [Example 11, 3-(4-fluorobenzyl)-7-hydroxy-1-{[methyl(pentyl)amino]methyl}-3,7-dihydro-6H-pyrrolo[2,3-c]-1,7-naphthyridin-6-one] | 3
NC(=O)[C@H]1CCCN1Cc1cn(Cc2ccc(F)cc2)c2cnc3c(=O)n(O)ccc3c12 [Example 12, 1-{[3-(4-fluorobenzyl)-7-hydroxy-6-oxo-6,7-dihydro-3H-pyrrolo[2,3-c]-1,7-naphthyridin-1-yl]methyl}-D-prolinamide] | 4
O=C1NCCC12CCN(Cc1cn(Cc3ccc(F)cc3)c3cnc4c(=O)n(O)ccc4c13)CC2 [Example 13, 3-(4-fluorobenzyl)-7-hydroxy-1-[(1-oxo-2,8-diazaspiro[4.5]dec-8-yl)methyl]-3,7-dihydro-6H-pyrrolo[2,3-c]-1,7-naphthyridin-6-one] | 13
CCN(Cc1cn(Cc2ccc(F)cc2)c2cnc3c(=O)n(O)ccc3c12)C1CCCCC1 [Example 14, 1-{[cyclohexyl(ethyl)amino]methyl}-3-(4-fluorobenzyl)-7-hydroxy-3,7-dihydro-6H-pyrrolo[2,3-c]-1,7-naphthyridin-6-one] | 8
O=C(CN1CCN(Cc2cn(Cc3ccc(F)cc3)c3cnc4c(=O)n(O)ccc4c23)CC1)N1CCCC1 [Example 15, 3-(4-fluorobenzyl)-7-hydroxy-1-{[4-(2-oxo-2-pyrrolidin-1-ylethyl)piperazin-1-yl]methyl}-3,7-dihydro-6H-pyrrolo[2,3-c]-1,7-naphthyridin-6-one] | 39
CN(CCc1ccccn1)Cc1cn(Cc2ccc(F)cc2)c2cnc3c(=O)n(O)ccc3c12 [Example 16, 3-(4-fluorobenzyl)-7-hydroxy-1-{[methyl(2-pyridin-2-ylethyl)amino]methyl}-3,7-dihydro-6H-pyrrolo[2,3-c]-1,7-naphthyridin-6-one] | 7
O=C1CCCN1CC1(O)CCN(Cc2cn(Cc3ccc(F)cc3)c3cnc4c(=O)n(O)ccc4c23)CC1 [Example 18, 3-(4-fluorobenzyl)-7-hydroxy-1-({4-hydroxy-4-[(2-oxopyrrolidin-1-yl)methyl]piperidin-1-yl}methyl)-3,7-dihydro-6H-pyrrolo[2,3-c]-1,7-naphthyridin-6-one] | 67
O=C1CCN(Cc2cn(Cc3ccc(F)cc3)c3cnc4c(=O)n(O)ccc4c23)CCN1 [Example 19, 3-(4-fluorobenzyl)-7-hydroxy-1-[(5-oxo-1,4-diazepan-1-yl)methyl]-3,7-dihydro-6H-pyrrolo[2,3-c]-1,7-naphthyridin-6-one] | 15
NC(=O)[C@@H]1CCCN1S(=O)(=O)c1cn(Cc2ccc(F)cc2)c2cnc3c(=O)n(O)ccc3c12 [Example 20, 1-{[3-(4-fluorobenzyl)-7-hydroxy-6-oxo-6,7-dihydro-3H-pyrrolo[2,3-c]-1,7-naphthyridin-1-yl]sulfonyl}-L-prolinamide] | 390
O=c1c2ncc3c(c(S(=O)(=O)NCCc4c[nH]c5ccccc45)cn3Cc3ccc(F)cc3)c2ccn1O [Example 21, 3-(4-fluorobenzyl)-7-hydroxy-N-[2-(1 H-indol-3-yl)ethyl]-6-oxo-6,7-dihydro-3H-pyrrolo[2,3-c]-1,7-naphthyridine-1-sulfonamide] | 480
O=C1CN(S(=O)(=O)c2cn(Cc3ccc(F)cc3)c3cnc4c(=O)n(O)ccc4c23)CCN1 [Example 22, 3-(4-fluorobenzyl)-7-hydroxy-1-[(3-oxopiperazin-1-yl)sulfonyl]-3,7-dihydro-6H-pyrrolo[2,3-c]-1,7-naphthyridin-6-one] | 45
CN(C)S(=O)(=O)c1cn(Cc2ccc(F)cc2)c2cnc3c(=O)n(O)ccc3c12 [Example 23, 3-(4-fluorobenzyl)-7-hydroxy-N,N-dimethyl-6-oxo-6,7-dihydro-3H-pyrrolo[2,3-c]-1,7-naphthyridine-1-sulfonamide] | 4
O=c1c2ncc3c(c(S(=O)(=O)NCC(F)(F)F)cn3Cc3ccc(F)cc3)c2ccn1O [Example 24, 3-(4-fluorobenzyl)-7-hydroxy-6-oxo-N-(2,2,2-trifluoroethyl)-6,7-dihydro-3H-pyrrolo[2,3-c]-1,7-naphthyridine-1-sulfonamide] | 22
O=c1c2ncc3c(c(S(=O)(=O)NCc4ccc(F)cc4)cn3Cc3ccc(F)cc3)c2ccn1O [Example 25, N,3-bis(4-fluorobenzyl)-7-hydroxy-6-oxo-6,7-dihydro-3H-pyrrolo[2,3-c]-1,7-naphthyridine-1-sulfonamide] | 160
CC(C)(C)OC(=O)N1CCC(COCc2cn(Cc3ccc(F)cc3)c3cnc4c(=O)n(O)ccc4c23)CC1 [Example 32, tert-butyl 4-({[3-(4-fluorobenzyl)-7-hydroxy-6-oxo-6,7-dihydro-3H-pyrrolo[2,3-c]-1,7-naphthyridin-1-yl]methoxy)methyl)pip eridine-1-carboxylate] | 6
O=c1c2ncc3c(c(COCCc4ccccn4)cn3Cc3ccc(F)cc3)c2ccn1O [Example 33, 3-(4-fluorobenzyl)-7-hydroxy-1-[(2-pyridin-2-ylethoxy)methyl]-3,7-dihydro-6H-pyrrolo[2,3-c]-1,7-naphthyridin-6-one] | 3
